Data as given in paper PMC12377202, “Design, synthesis, and cytotoxic evaluation of quinazoline-based derivatives as VEGER-2 inhibitors: comparative study against EGFR kinase activity, induction of apoptosis, and molecular docking study” (RSC Advances, 2025).

Tests used:
MCF-7 = test: MTT anti-proliferative assay, MCF-7; format: cell-based, human
HepG-2 = test: MTT anti-proliferative assay, HepG-2; format: cell-based, human
K-562 = test: MTT anti-proliferative assay, K-562; format: cell-based, human
caspase-3 = test: Caspase-3 expression level in HepG-2 cells; format: cell-based, human; settings: for Caspase-3 ± SE: HepG-2, at IC50 concentrations, control 0.460
Method: (§1) All synthesized compounds were tested at their cytotoxic concentrations in HepG-2 cells for analysis of gene expression levels of apoptotic markers caspase-3, caspase-9, TNF-α, and IL-6 proteins, and only two active compounds were tested for BAX and Bcl-2 proteins.
(§2) through Flow cytometric analysis.
(§3) Pellets were collected again and incubated with
(§4) Total RNA from vehicle-treated
(§5) (Thermo Scientific, USA).
(§6) All experiments were performed in […]

caspase-9 = test: Caspase-9 expression level in HepG-2 cells; format: cell-based, human; settings: for Caspase-9 ± SE: HepG-2, at IC50 concentrations, control 11.01
Method: as §1, §2, §3, §4, §5, §6

TNF-alpha = TNF-alpha level in HepG-2 cells; format: cell-based, human; settings: for TNF-alpha ±SE: control 43.48
Method: as §1, §2, §3, §4, §5, §6

IL-6R = IL-6R level in HepG-2 cells; format: cell-based, human
Method: as §1, §2, §3, §4, §5, §6

EGFR = EGFR (Homo sapiens, UniProt P00533); test: EGFR kinase inhibition assay (ELISA kit)
VEGFR-2 = VEGFR-2 (Homo sapiens, UniProt P35968); test: In vitro VEGFR-2 inhibitory assay (ELISA kit); settings: VEGFR-2 kinase
Sequence of VEGFR-2 (P35968 20-1356): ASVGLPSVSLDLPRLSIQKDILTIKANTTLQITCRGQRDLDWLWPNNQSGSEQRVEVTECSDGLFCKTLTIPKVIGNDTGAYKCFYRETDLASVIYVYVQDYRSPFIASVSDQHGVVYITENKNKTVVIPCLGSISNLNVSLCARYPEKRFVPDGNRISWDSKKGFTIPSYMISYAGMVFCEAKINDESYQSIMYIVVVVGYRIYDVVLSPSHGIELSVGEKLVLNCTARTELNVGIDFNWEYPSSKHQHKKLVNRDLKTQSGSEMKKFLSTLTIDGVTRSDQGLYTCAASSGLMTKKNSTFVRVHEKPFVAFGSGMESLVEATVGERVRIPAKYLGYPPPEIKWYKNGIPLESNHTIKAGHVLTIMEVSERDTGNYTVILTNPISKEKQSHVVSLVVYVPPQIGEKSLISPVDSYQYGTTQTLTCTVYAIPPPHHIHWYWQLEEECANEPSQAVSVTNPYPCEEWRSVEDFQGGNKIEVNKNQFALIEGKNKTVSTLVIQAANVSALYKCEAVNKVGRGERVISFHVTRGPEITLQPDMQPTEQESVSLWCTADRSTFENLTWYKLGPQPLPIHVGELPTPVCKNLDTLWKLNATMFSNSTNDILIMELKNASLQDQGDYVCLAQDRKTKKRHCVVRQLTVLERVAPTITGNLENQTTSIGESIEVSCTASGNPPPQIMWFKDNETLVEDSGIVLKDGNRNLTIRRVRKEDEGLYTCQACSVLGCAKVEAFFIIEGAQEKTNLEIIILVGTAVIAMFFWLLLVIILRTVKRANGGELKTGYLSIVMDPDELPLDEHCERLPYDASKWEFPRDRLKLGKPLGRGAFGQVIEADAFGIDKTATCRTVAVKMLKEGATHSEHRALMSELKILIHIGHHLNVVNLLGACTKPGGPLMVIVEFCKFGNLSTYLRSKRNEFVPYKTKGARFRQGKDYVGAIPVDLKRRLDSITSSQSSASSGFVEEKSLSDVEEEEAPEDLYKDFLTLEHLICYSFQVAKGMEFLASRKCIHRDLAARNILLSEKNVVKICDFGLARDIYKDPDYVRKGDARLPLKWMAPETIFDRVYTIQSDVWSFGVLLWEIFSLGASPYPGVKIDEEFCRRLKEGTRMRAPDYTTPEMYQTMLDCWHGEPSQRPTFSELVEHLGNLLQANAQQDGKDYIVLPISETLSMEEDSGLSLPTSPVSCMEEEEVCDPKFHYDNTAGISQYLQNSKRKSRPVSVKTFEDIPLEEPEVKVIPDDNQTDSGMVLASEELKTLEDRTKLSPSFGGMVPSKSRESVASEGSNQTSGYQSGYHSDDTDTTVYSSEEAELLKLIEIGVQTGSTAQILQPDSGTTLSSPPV

In the case of “N-(2,6-Dichlorophenyl)-2-(7-nitro-4-oxoquinazolin-3(4H)-yl)acetamide [9d]”, the Toxicity % (MCF-7; MCF-7, 0.195 umol) is reported as 49.43%, the Viability % (MCF-7; MCF-7, 0.195 umol) is reported as 50.57% and the Toxicity % (MCF-7; MCF-7, 0.391 umol) is reported as 61.52%. It also gave a Viability % (MCF-7; MCF-7, 0.391 umol) of 38.48%, a Toxicity % (MCF-7; MCF-7, 0.781 umol) of 74.05% and a Viability % (MCF-7; MCF-7, 0.781 umol) of 25.95%. The Toxicity % (MCF-7; MCF-7, 1.563 umol) was 65.74%, the Toxicity % (MCF-7; MCF-7, 3.125 umol) was 91.03% and the Viability % (MCF-7; MCF-7, 3.125 umol) was 8.971%. For the same substance, the Toxicity % (MCF-7; MCF-7, 6.25 umol) was 92.04%, the Viability % (MCF-7; MCF-7, 6.25 umol) was 7.96% and the Toxicity % (MCF-7; MCF-7, 12.5 umol) was 93.58%. The Viability % (MCF-7; MCF-7, 12.5 umol) was 6.42%, the Toxicity % (MCF-7; MCF-7, 25 umol) was 92.88% and the Viability % (MCF-7; MCF-7, 25 umol) was 7.124%. The IC50 (MCF-7; MTT, MCF-7, read-out: Cytotoxicity against cancer cells IC50 MCF-7) was 204 ± 2.6 nM, the Toxicity % (HepG-2; HepG-2, 0.195 ug/ml) was 39.23% and the Viability % (HepG-2; HepG-2, 0.195 ug/ml) was 60.77%. It also gave a Toxicity % (HepG-2; HepG-2, 0.391 ug/ml) of 55.68%, a Viability % (HepG-2; HepG-2, 0.391 ug/ml) of 44.32% and a Toxicity % (HepG-2; HepG-2, 0.781 ug/ml) of 70.62%. It also gave a Viability % (HepG-2; HepG-2, 0.781 ug/ml) of 29.38%, a Toxicity % (HepG-2; HepG-2, 1.563 ug/ml) of 85.02% and a Viability % (HepG-2; HepG-2, 1.563 ug/ml) of 14.98%. The Toxicity % (HepG-2; HepG-2, 3.125 ug/ml) was 89.27%, the Viability % (HepG-2; HepG-2, 3.125 ug/ml) was 10.73% and the Toxicity % (HepG-2; HepG-2, 6.25 ug/ml) was 91.87%. The Viability % (HepG-2; HepG-2, 6.25 ug/ml) was 8.132%, the Toxicity % (HepG-2; HepG-2, 12.5 ug/ml) was 93.19% and the Viability % (HepG-2; HepG-2, 12.5 ug/ml) was 6.813%. It also gave a Toxicity % (HepG-2; HepG-2, 25 ug/ml) of 93.7%, a Viability % (HepG-2; HepG-2, 25 ug/ml) of 6.3% and an IC50 (HepG-2; MTT, HepG-2, read-out: Cytotoxicity against cancer cells IC50 HepG-2) of 322.7 ± 2.9 nM. For the same substance, the Toxicity % (K-562; K-562, 0.195 umol) was 0.4516%, the Viability % (K-562; K-562, 0.195 umol) was 99.55% and the Toxicity % (K-562; K-562, 0.391 umol) was 4.146%. It also gave a Viability % (K-562; K-562, 0.391 umol) of 95.85%, a Toxicity % (K-562; K-562, 0.781 umol) of 28.41% and a Viability % (K-562; K-562, 0.781 umol) of 71.59%. The Toxicity % (K-562; K-562, 1.563 umol) was 39.82%, the Viability % (K-562; K-562, 1.563 umol) was 60.18% and the Toxicity % (K-562; K-562, 3.125 umol) was 62.19%. The Viability % (K-562; K-562, 3.125 umol) was 37.81%, the Toxicity % (K-562; K-562, 6.25 umol) was 87.81% and the Viability % (K-562; K-562, 6.25 umol) was 12.19%. For the same substance, the Toxicity % (K-562; K-562, 12.5 umol) was 90.52%, the Viability % (K-562; K-562, 12.5 umol) was 9.483% and the Toxicity % (K-562; K-562, 25 umol) was 92.57%. The Viability % (K-562; K-562, 25 umol) was 7.43%, the IC50 (K-562; MTT, K-562, read-out: Cytotoxicity against cancer cells IC50 K-562) was 2274 ± 3.5 nM and the “Caspase-3 ± SE” value (caspase-3) was 0.68 ± 0.013 ng/mL. For the same substance, the “Caspase-3 ± SE” value (caspase-3; listed as N3) was 0.68 ng/mL, the “caspase-3 expression level, fold increase” value (caspase-3; HepG-2, vs control cells) was 1.5 fold and the “Caspase-9 ± SE” value (caspase-9) was 43.52 ± 3.69 ng/L. For the same substance, the “Caspase-9 ± SE” value (caspase-9; listed as N3) was 43.52 ng/L, the “caspase-9 expression level, fold increase” value (caspase-9; HepG-2, vs control cells) was 3.95 fold and the “TNF-alpha ±SE” value (TNF-alpha; HepG-2, at IC50 concentrations) was 10.2 ± 1.53 ng/L. For the same substance, the TNF-α expression level (TNF-alpha; HepG-2, control 43.48%) was 10.2 ng/L, the “TNF-alpha ±SE” value (TNF-alpha; raw data, HepG2) was 16.01 ng/L and the “IL-6R ± SE” value (IL-6R; HepG-2, at IC50 concentrations, control 44.10) was 16.64 ± 0.83 ng/L. For the same substance, the IL-6R protein level (IL-6R; HepG-2, control 44.10%) was 16.64 ng/L, the “IL-6 ±SE” value (IL-6R; raw data, HepG2, control 44.10) was 10.13 ng/L and the Activity % (EGFR; HepG2) was 18.428%. The Inhibition % (EGFR; HepG2) was 81.572%, the Activity % (EGFR; K-562) was 16.638% and the Inhibition % (EGFR; K-562) was 83.362%. The Activity % (EGFR; MCF7) was 30.226%, the Inhibition % (EGFR; MCF7) was 69.774% and the Activity % (VEGFR-2; HepG2) was 19.818%. For the same substance, the Inhibition % (VEGFR-2; HepG2) was 80.182%, the Activity % (VEGFR-2; K-562) was 41.248% and the Inhibition % (VEGFR-2; K-562) was 58.752%. It also gave an Activity % (VEGFR-2; MCF7) of 52.958% and an Inhibition % (VEGFR-2; MCF7) of 47.042%.
